Five compounds from patent publication US20020137929A1, “1 - (3-heterocyclylphenyl) isothiourea, -isourea, -guanidine and -amidine herbicidal agents” (Intellectual Property Department, BASF Aktiengesellschaft, priority 1998, published 2002) can be followed below.

Data set [1] concerns TRZAWR (Wheat, Winter, cv Riband). Put plainly: Postemergence herbicidal evaluation. It is filed as in vivo, Triticum aestivum. Particulars: for Herbicidal rating TRZAWR / TRZAWR herbicidal rating: postemergence. In short, it runs like this:
(§1)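 Each compound, dispersed in an acetone/water mix (50/50) carrying 0.5% TWEEN 20, is nozzle-sprayed at 40 psi on approximately two-week-old seedlings at about 0.0156–0.500 kg/ha. Plants are assessed 4–5 weeks afterward on a 0–9 scale relative to control; duplicate tests are averaged.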

For another data set, the system named is CASOB (Sicklepod). Nature of the data set: Postemergence herbicidal evaluation. Format: in vivo, Cassia obtusifolia. The following applies: for Herbicidal rating CASOB / CASOB herbicidal rating: postemergence. Summed up: as §1
The test system of data set [2] is CHEAL (Lambsquarters, Common). Nature of the data set: Preemergence herbicidal evaluation. Format: in vivo, Chenopodium album. The following applies: rated 4-5 weeks after treatment. In short, it runs like this: (§2)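 Greenhouse preemergence test: seed-soil mix sown on ~1 inch soil; aqueous acetone spray at equivalent of ~0.0156–0.500 kg/ha; greenhouse-held and watered; scored 0–9 visually at 4–5 weeks.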

The test system of data set [3] is ORYSAT (Rice, Tebonnet). Nature of the data set: Preemergence herbicidal evaluation. Particulars: rated 4-5 weeks after treatment. Format: in vivo, Oryza sativa, (L.) Tebonnet. In short, it runs like this:
as §2

Data set [4] concerns CHEAL (Lambsquarters, Common). Nature of the data set: Postemergence herbicidal evaluation. It is filed as in vivo, Chenopodium album. Particulars: for Herbicidal rating CHEAL / CHEAL herbicidal rating: postemergence. Summed up:
as §1

Data set [5] deals with ORYSAT (Rice, Tebonnet). Put plainly: Rice tolerance to post-transplant applications, flooded paddy conditions (Table III). Format: in vivo, Oryza sativa, (L.) Tebonnet. The following applies: in vivo. As for the experimental part:
Results of herbicide evaluation are expressed on a rating scale (0-9). The scale is based upon a visual observation of plant stand, vigor, malformation, size, chlorosis and overall plant appearance as compared with a control.
The tolerance of transplanted rice to post-transplanted herbicide applications is determined as follows: two ten-day-old rice seedlings (cv. Tebonnet) are transplanted into silt loam soil in 32 oz. plastic containers with a diameter of 10.5 cm and no drainage holes. After transplanting, the containers are flooded and the water level is maintained at 1.5 to 3 cm above the soil surface. Three days after transplanting, the flooded soil surface of the containers is treated with the selected aqueous/acetone 50/50 v/v mixture containing the test compounds to provide the equivalent of about 0.0313 to 0.500 kg/ha of active ingredient. The treated containers are placed on greenhouse benches, watered such that the water level is maintained as stated above, and cared for in accordance with conventional greenhouse procedures. Three to four weeks after treatment, the test is terminated and each container is examined and herbicidal effect rated according to the rating system provided in Example 37. The compounds evaluated are reported by compound number given in Example 37.
Plant species employed in this example are reported by header abbreviation, common name and scientific name.

The next data set has as its system MOOVA (Monochoria). Nature of the data set: Postemergence weed control under flooded paddy conditions. Format: in vivo, Monochoria vaginalis. Particulars: postemergence weeds, 3-4 weeks after treatment. In short, it runs like this:
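With weeds 3 to 5 cm tall and rice at the 1.5 to 2.5 leaf stage, containers were flooded and water held 1.5 to 3 cm above soil. Compounds in 50/50 v/v aqueous/acetone went into the flood water at about 0.0313 to 0.500 kg/ha a.i. Effects were visually rated 0–9 against controls after three to four weeks in the greenhouse.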

Where [6] appears, read: rate 0.1250 kg/ha, rating scale 0-9.
Where [7] appears, read: rate 0.2500 kg/ha, rating scale 0-9.
Setting [8] is: rate 0.0156 kg/ha, rating scale 0-9.
Where [9] appears, read: rate 0.0313 kg/ha, rating scale 0-9.
Where [10] appears, read: rate 0.0625 kg/ha, rating scale 0-9.

On to `CCOC(=O)CN1C(=O)C(C(=O)OC(C)(C)C)SC1=Nc1cc(-n2c(=O)cc(C(F)(F)F)n(C)c2=O)c(F)cc1Cl` (stereo not drawn) [Compound 167, 5-Carboxy-2-{{2-chloro-5-[3,6-dihydro-3-methyl-2,6-dioxo-4-(trifluoromethyl)-1(2H)-pyrimidinyl]-4-fluorophenyl}imino}-4-oxo-3-thiazolidineacetic acid, 5-tert-butyl ethyl ester], for which the “Herbicidal rating TRZAWR” value in data set [1] (rate 0.0156 kg/ha) amounted to 4.0; in data set [1] (rate 0.0313 kg/ha) it was 4.0; in data set [1] (rate 0.0625 kg/ha), 4.0; in data set [1] (rate 0.1250 kg/ha), 4.5. Further, the “Herbicidal rating CASOB” value came out at 1.0 in the data set on CASOB (Sicklepod) (rate 0.0156 kg/ha), 2.0 in the data set on CASOB (Sicklepod) (rate 0.0313 kg/ha), 1.0 in the data set with CASOB (Sicklepod) (rate 0.0625 kg/ha) and 4.0 in the data set on CASOB (Sicklepod) (rate 0.1250 kg/ha). For the same compound, the “Preemergence herbicidal rating CHEAL” value in data set [2] (0.0156 kg/ha) was 7.0; in data set [2] (0.0313 kg/ha) it was 7.0; in data set [2] (0.0625 kg/ha) it was 9.0; in data set [2] (0.1250 kg/ha), 9.0; in data set [2] (0.2500 kg/ha) it was 9.0; in data set [2] (0.5000 kg/ha), 9.0. The “Preemergence herbicidal rating ORYSAT” value was found to be 0.0 with ORYSAT (Rice, Tebonnet) [3] (0.0156 kg/ha); 0.0 in the data set on ORYSAT (Rice, Tebonnet) [3] (0.0313 kg/ha); 1.0 with ORYSAT (Rice, Tebonnet) [3] (0.0625 kg/ha); 4.0 with ORYSAT (Rice, Tebonnet) [3] (0.1250 kg/ha); 5.0 in the data set on ORYSAT (Rice, Tebonnet) [3] (0.2500 kg/ha); 6.0 in the data set on ORYSAT (Rice, Tebonnet) [3] (0.5000 kg/ha). The “Herbicidal rating CHEAL” value worked out at 4.0 in data set [4] (rate 0.0156 kg/ha), 7.0 in data set [4] (rate 0.0313 kg/ha), 9.0 in data set [4] (rate 0.0625 kg/ha) and 9.0 in data set [4] (rate 0.1250 kg/ha). In the data set with ORYSAT (Rice, Tebonnet) [5], the “herbicidal effect rating, ORYSAT (rice tolerance)” value (“herbicidal effect rating, ORYSAT” below) worked out at 4.0.
Regarding `Cc1ccc(CN2C(=O)CSC2=Nc2cc(-n3c(=O)cc(C(F)(F)F)n(C)c3=O)c(F)cc2Cl)cc1Cl` [Compound 149, 3-{4-Chloro-5-{[3-(3-chloro-4-methylbenzyl)-4-oxo-2-thiazolidinylidene]amino}-2-fluorophenyl}-1-methyl-6-(trifluoromethyl)-2,4(1H,3H)-pyrimidinedione], the “Herbicidal rating TRZAWR” value in data set [1] (rate 0.0156 kg/ha) came to 3.0; in data set [1] (rate 0.0313 kg/ha) it was 3.5; in data set [1] (rate 0.0625 kg/ha) it was 3.5. In addition, the “Herbicidal rating CASOB” value with CASOB (Sicklepod) (rate 0.0156 kg/ha), with CASOB (Sicklepod) (rate 0.0313 kg/ha) and in the data set on CASOB (Sicklepod) (rate 0.0625 kg/ha) was 0.0 throughout. The “Preemergence herbicidal rating CHEAL” value in data set [2] (setting [6]) amounted to 3.0; in data set [2] (setting [7]) it was 9.0. Moreover, the “Preemergence herbicidal rating ORYSAT” value worked out at 2.0 with ORYSAT (Rice, Tebonnet) [3] (setting [6]) and 2.0 in the data set on ORYSAT (Rice, Tebonnet) [3] (setting [7]). For the same compound, the “Herbicidal rating CHEAL” value in data set [4] (rate 0.0156 kg/ha) was found to be 3.0; in data set [4] (rate 0.0313 kg/ha), 3.0; in data set [4] (rate 0.0625 kg/ha), 4.0. Also, the “herbicidal effect rating, ORYSAT” value with ORYSAT (Rice, Tebonnet) [5] is 0.0.
As for `Cn1c(C(F)(F)F)cc(=O)n(-c2cc(N=C3SCC(=O)N3Cc3ccc(C(F)(F)F)cc3)c(Cl)cc2F)c1=O` [Compound 141, 3-{4-Chloro-2-fluoro-5-{{3-[p-(trifluoromethyl)benzyl]-4-oxo-2-thiazolidinylidene}-amino}phenyl}-1-methyl-6-(trifluoromethyl)-2,4 (1H, 3H)-pyrimidinedione], the “Herbicidal rating TRZAWR” value stood at 3.0 in data set [1] (rate 0.0156 kg/ha), 3.5 in data set [1] (rate 0.0313 kg/ha) and 4.5 in data set [1] (rate 0.0625 kg/ha). Moreover, the “Herbicidal rating CASOB” value in the data set with CASOB (Sicklepod) (rate 0.0156 kg/ha), in the data set with CASOB (Sicklepod) (rate 0.0313 kg/ha) and in the data set with CASOB (Sicklepod) (rate 0.0625 kg/ha) was 0.0 throughout. The “Preemergence herbicidal rating CHEAL” value in data set [2] (setting [8]) turned out to be 3.0; in data set [2] (setting [9]), 9.0; in data set [2] (setting [10]), 9.0; in data set [2] (setting [6]) it was 9.0; in data set [2] (setting [7]), 9.0. Also, the “Preemergence herbicidal rating ORYSAT” value came out at 0.0 in the data set with ORYSAT (Rice, Tebonnet) [3] (setting [8]); 0.0 in the data set with ORYSAT (Rice, Tebonnet) [3] (setting [9]); 0.0 with ORYSAT (Rice, Tebonnet) [3] (setting [10]); 0.0 in the data set on ORYSAT (Rice, Tebonnet) [3] (setting [6]); 0.0 with ORYSAT (Rice, Tebonnet) [3] (setting [7]). Also, the figures for the “Herbicidal rating CHEAL” value in data set [4] (rate 0.0156 kg/ha), in data set [4] (rate 0.0313 kg/ha) and in data set [4] (rate 0.0625 kg/ha) were 3.0, 5.0 and 9.0, respectively. Moreover, the “herbicidal effect rating, ORYSAT” value in the data set on ORYSAT (Rice, Tebonnet) [5] was determined as 0.0.
As to `Cn1c(C(F)(F)F)cc(=O)n(-c2cc(N=C3SCC(=O)N3CC(=O)OC(C)(C)C)c(Cl)cc2F)c1=O` [Compound 43, tert-Butyl 2-{{2-chloro-5-[3,6-dihydro-3-methyl-2,6-dioxo-4-(trifluoromethyl)-1(2H)-pyrimidinyl]-4-fluorophenyl}imino}-4-oxo-3-thiazolidineacetate], the entries for the “Postemergence herbicidal rating TRZAWR” value in data set [1] (Rate 0.0158 kg/ha), in data set [1] (Rate 0.0315 kg/ha) and in data set [1] (Rate 0.0630 kg/ha) were 3.0, 3.5 and 4.0, respectively. Further, the “Postemergence herbicidal rating CASOB” value in the data set with CASOB (Sicklepod) (Rate 0.0158 kg/ha), in the data set on CASOB (Sicklepod) (Rate 0.0315 kg/ha) and in the data set on CASOB (Sicklepod) (Rate 0.0630 kg/ha) was 9.0 throughout. The “Preemergence herbicidal rating CHEAL” value in data set [2] (rate 0.0156 kg/ha), in data set [2] (rate 0.0313 kg/ha), in data set [2] (rate 0.0625 kg/ha), in data set [2] (rate 0.1250 kg/ha) and in data set [2] (rate 0.2500 kg/ha) was 9.0 each time. Besides, the “Preemergence herbicidal rating ORYSAT” value is 0.0 with ORYSAT (Rice, Tebonnet) [3] (rate 0.0156 kg/ha); 0.0 in the data set on ORYSAT (Rice, Tebonnet) [3] (rate 0.0313 kg/ha); 0.0 in the data set with ORYSAT (Rice, Tebonnet) [3] (rate 0.0625 kg/ha); 0.0 in the data set on ORYSAT (Rice, Tebonnet) [3] (rate 0.1250 kg/ha); 0.0 with ORYSAT (Rice, Tebonnet) [3] (rate 0.2500 kg/ha). In addition, the “Postemergence herbicidal rating CHEAL” value was determined as 5.0 in data set [4] (Rate 0.0158 kg/ha), 9.0 in data set [4] (Rate 0.0315 kg/ha) and 9.0 in data set [4] (Rate 0.0630 kg/ha). In addition, the “Herbicidal rating MOOVA” value with MOOVA (Monochoria) (rate 0.0313 kg/ha), in the data set on MOOVA (Monochoria) (rate 0.0825 kg/ha), in the data set with MOOVA (Monochoria) (rate 0.1250 kg/ha) and in the data set with MOOVA (Monochoria) (rate 0.2500 kg/ha) was 9.0 in each case.
On to `Cn1c(C(F)(F)F)cc(=O)n(-c2cc(N=C3SCC(=O)N3Cc3ccccc3)c(Cl)cc2F)c1=O` [Compound 26], for which the TRZAWR herbicidal rating in data set [1] (rate 0.0156 kg/ha) was determined as 1.5; in data set [1] (rate 0.0313 kg/ha), 2.5; in data set [1] (rate 0.0625 kg/ha), 3.5. For the same compound, the CASOB herbicidal rating in the data set with CASOB (Sicklepod) (rate 0.0156 kg/ha), in the data set with CASOB (Sicklepod) (rate 0.0313 kg/ha) and with CASOB (Sicklepod) (rate 0.0625 kg/ha) was 0.0 in each case. Besides, the “Preemergence herbicidal rating CHEAL” value in data set [2] (rate 0.0156 kg/ha) stood at 3.0; in data set [2] (rate 0.0313 kg/ha), 9.0; in data set [2] (rate 0.0625 kg/ha), 9.0; in data set [2] (rate 0.1250 kg/ha), 9.0; in data set [2] (rate 0.2500 kg/ha) it was 9.0. In addition, the “Preemergence herbicidal rating ORYSAT” value with ORYSAT (Rice, Tebonnet) [3] (rate 0.0156 kg/ha) is given as 0.0; in the data set with ORYSAT (Rice, Tebonnet) [3] (rate 0.0313 kg/ha), 0.0; with ORYSAT (Rice, Tebonnet) [3] (rate 0.0625 kg/ha), 0.0; with ORYSAT (Rice, Tebonnet) [3] (rate 0.1250 kg/ha), 0.0; with ORYSAT (Rice, Tebonnet) [3] (rate 0.2500 kg/ha), 0.0. Besides, the CHEAL herbicidal rating in data set [4] (rate 0.0156 kg/ha), in data set [4] (rate 0.0313 kg/ha) and in data set [4] (rate 0.0625 kg/ha) was 9.0 each time. Moreover, the “Herbicidal rating MOOVA” value in the data set with MOOVA (Monochoria) (rate 0.0313 kg/ha), in the data set on MOOVA (Monochoria) (rate 0.0625 kg/ha), with MOOVA (Monochoria) (rate 0.1250 kg/ha) and in the data set on MOOVA (Monochoria) (rate 0.2500 kg/ha) was 9.0 throughout.
